From ChEMBL document CHEMBL3745715, “Sulfonamide inhibition studies of the α-carbonic anhydrase from the gammaproteobacterium Thiomicrospira crunogena XCL-2, TcruCA” (Bioorg Med Chem Lett, 2016)

Assays:
[1] = target: Carbonic anhydrase, alpha family (Thiomicrospira crunogena, UniProt Q31FD6)
Description: Inhibition of recombinant Thiomicrospira crunogena XCL-2 carbonic anhydrase by stopped flow CO2 hydrase assay

[2] = target: T1, Carbonate dehydratase (Sulfurihydrogenibium sp. (strain YO3AOP1), UniProt B2V8E3)
T1 sequence (B2V8E3 whole entry): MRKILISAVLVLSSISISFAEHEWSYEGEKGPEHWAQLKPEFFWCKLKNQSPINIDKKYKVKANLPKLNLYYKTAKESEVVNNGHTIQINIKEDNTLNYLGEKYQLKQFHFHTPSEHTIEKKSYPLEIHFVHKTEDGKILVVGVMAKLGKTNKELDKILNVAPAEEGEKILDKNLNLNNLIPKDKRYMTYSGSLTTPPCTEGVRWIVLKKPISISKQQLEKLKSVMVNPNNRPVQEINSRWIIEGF
Description: Inhibition of recombinant Sulfurihydrogenibium yellowstonense YO3AOP1 carbonic anhydrase by stopped flow CO2 hydrase assay

Carbonic anhydrase, alpha family, sequence (Q31FD6 whole entry): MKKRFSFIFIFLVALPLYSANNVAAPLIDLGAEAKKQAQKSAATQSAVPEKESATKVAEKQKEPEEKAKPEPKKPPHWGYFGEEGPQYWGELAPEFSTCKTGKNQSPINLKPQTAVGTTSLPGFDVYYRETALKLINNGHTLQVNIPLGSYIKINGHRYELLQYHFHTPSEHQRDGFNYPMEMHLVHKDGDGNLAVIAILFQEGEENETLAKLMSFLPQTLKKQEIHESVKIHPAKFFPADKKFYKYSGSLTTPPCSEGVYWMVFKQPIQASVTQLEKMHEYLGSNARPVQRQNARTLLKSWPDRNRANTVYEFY

SMILES	Ki [1] [nM]	Ki [2] [nM]
NNc1ccccc1S(N)(=O)=O	71.4	695
Nc1nnc(S(N)(=O)=O)s1	27.9	137
Nc1ccc(S(=O)(=O)NCc2ccc(S(N)(=O)=O)cc2)cc1	454	7.8
Nc1cc(Cl)c(S(N)(=O)=O)cc1S(N)(=O)=O	54.4	
Nc1ccc(S(N)(=O)=O)cc1I		44.8
Nc1ccc(S(=O)(=O)Nc2nnc(S(N)(=O)=O)s2)cc1	5.6	5.5
NS(=O)(=O)c1nnc(-c2ccccc2Cl)s1	2.5	70.1
Nc1nccc(Nc2ccc(S(N)(=O)=O)cc2)n1	92.3	6.5
NS(=O)(=O)c1nc2ccc(O)cc2s1	40.7	
Nc1ccc(S(N)(=O)=O)cc1Br	545	75.7
Cn1nc(S(N)(=O)=O)sc1=N	4.8	433
NS(=O)(=O)c1ccc(CCO)cc1	31.5	162
Nc1ccc(S(N)(=O)=O)cc1F	82.1	68.3
NS(=O)(=O)c1ccc(CO)cc1	21.2	493
NCCc1ccc(S(N)(=O)=O)cc1	488	
Nc1ccc(S(N)(=O)=O)cc1Cl	79.7	41.2
Nc1ccc(S(=O)(=O)NCCc2ccc(S(N)(=O)=O)cc2)cc1	402	9.7
NNc1ccc(S(N)(=O)=O)cc1	84.5	803
Nc1cc(C(F)(F)F)c(S(N)(=O)=O)cc1S(N)(=O)=O [2,4-DISULFAMYLTRIFLUOROMETHYLANILINE]	67.2	
NS(=O)(=O)c1nnc(NS(=O)(=O)c2ccccc2)s1 [BENZOLAMIDE]	2.7	
CCN[C@H]1CN(CCCOC)S(=O)(=O)c2sc(S(N)(=O)=O)cc21 [BRINZOLAMIDE]	4.2	12.3
NS(=O)(=O)c1ccc(C(=O)O)cc1 [CARZENIDE]	85.2	72.4
Cc1ccc(-c2cc(C(F)(F)F)nn2-c2ccc(S(N)(=O)=O)cc2)cc1 [CELECOXIB]	981	6.9
CCOc1ccc2nc(S(N)(=O)=O)sc2c1 [ETHOXZOLAMIDE]	4.1	
NCc1ccc(S(N)(=O)=O)cc1 [MAFENIDE]	202	350
Cc1ccc(S(N)(=O)=O)cc1 [P-TOLUENESULFONAMIDE]	244	848
O=C1NS(=O)(=O)c2ccccc21 [SACCHARIN]	933	876
Nc1ccc(S(N)(=O)=O)cc1 [SULFANILAMIDE]	628	652
CC1(C)O[C@@H]2[C@@H](CO[C@@]3(COS(N)(=O)=O)OC(C)(C)O[C@@H]23)O1 [TOPIRAMATE]	769	6.6
